Experimental findings from patent US9376382B2, “N-substituted isopropyldimethyl azulene sulfonamide derivatives, and preparation method and use thereof” (Sichuan Guokang Pharmaceutical Co., Ltd., priority 2011, dated 2016) are described below.

Data set [1] can be described thus: High-temperature test (60° C.), stability study.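 For all read-outs here: samples kept uncovered in dishes at 60 °C for up to 10 days and examined on Day 5 and Day 10.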 It is filed as physicochemical. The note with it: open-stored; for Appearance Day 5: Day 5, cell wraps; for Appearance Day 5 / Appearance Day 10: first line given; for Appearance Day 10: Day 10, cell wraps.
Protocol: (§1) The test samples were open-stored in culture dishes at 60° C. for 10 days, and taken and detected on Day 5 and Day 10. • The characteristics, especially colour change were observed. • Melting points were measured by automatic melting point apparatus. • By self-reflection, TLC is used to observe whether the spot numbers were increased after 5 days and 10 days.
The nature of data set [2]: High humidity test (25° C., relative humidity 90% ± 5%), stability study.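 For all read-outs here: samples kept uncovered in sealed humidity desiccators, appearance judged mainly by colour change, melting point on an automatic apparatus, TLC checked for extra spots versus start.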 Particulars: RH 90% ± 5%; for Appearance Day 0: Day 0, cell wraps; for Appearance Day 0 / Appearance Day 5 / Appearance Day 10: first line given; for Appearance Day 5: Day 5, cell wraps; for Appearance Day 10: Day 10, cell wraps. The data set is classed as physicochemical.
Protocol: (§2) The test samples were open-stored in closed constant humidity desiccators under the condition of 25° C. and relative humidity of 90%+5% for 10 days, and taken and detected on Day 5 and Day 10. Meanwhile, each sample was accurately weighed before and after test.
The characteristics, especially colour change was observed.
Melting points were measured by an automatic melting point apparatus.
By self-reflection, TLC is used to observe whether the spot numbers were increased after 5 days and 10 days.
A short description of data set [3]: Intense light irradiation test (4500LX ± 500LX), stability study. It is filed as physicochemical. Particulars: for Appearance Day 0: Day 0, cell wraps; for Appearance Day 0 / Appearance Day 5 / Appearance Day 10: first line given; for Appearance Day 5: Day 5, cell wraps; for Appearance Day 10: Day 10, cell wraps.
Protocol: (§3) The test samples were open-stored in “adjustable light boxes” under the conditions of illumination of 4500LX±500LX for 10 days, and taken and detected on Day 5 and Day 10 with regards to dry items. • The characteristics, especially colour change was observed. • Melting points were measured by an automatic melting point apparatus. • By self-reflection, TLC is used to observe whether the spot numbers were increased after 5 days and 10 days.
Data set [4] can be described thus: Stability studies (light, humidity, heat), overall comparison.
Protocol: as §1, §2, §3
The test system of data set [5] is ethanol-induced gastric ulcer. Put plainly: Anhydrous ethanol-induced gastric ulcer in mice. It is filed as in vivo, Kunming mice. More on the design: key to Gastri ulcer score (X ± SD) / Ulcer score (X ± SD) / Gastric ulcer score (X ± SD): summed pathology score: congestion 1, hemorrhage/erosion 1, linear erosion 3. The note with it: for Inhibition rate (%): inhibition rate of ulcer vs model group; for Gastric ulcer score (X ± SD) / Gastri ulcer score (X ± SD) / Ulcer score (X ± SD): mice, intragastric once a day for five days; for anti-gastric ulcer effect in words: ethanol-induced gastric ulcer in mice, compared to the model group; for Gastri ulcer score (X ± SD): dose equimolar to azulene sulfonate sodium 3.0 mg/kg (Omeprazole 13.4 mg/kg), model group 13.00 ± 1.77; for Ulcer score (X ± SD): equimolar doses, model group 20.33 ± 12.23. The method, then: Kunming mice, half male and half female, weighing 18-22 g, provided by the West China Animal Center
(1) Azulene sodium sulphonate was added with 0.5% CMC to prepare a suspension with concentration of 0.15 mg/ml.
(2) 20 mg of Omeprazole was added with 0.5% CMC to prepare a suspension with concentration of 0.67 mg/ml.
Kunming mice were randomly grouped according the body weight (one model control group or negative control group, one Omeprazole control group or positive control group, one Azulene sodium sulphonate control group, twelve test drug groups), eight mice for each group, half male and half female.
Administration: Model control group was administrated intragastrically with 0.5% CMC solution at a dose of 0.4 ml/20 g; Omeprazole control group was administrated intragastrically with Omeprazole at a dose of 0.4 ml/20 g, Azulene sodium sulphonate control group and each test drug groups were administrated intragastrically with their respective drug at a dose of 0.4 ml/20 g. The mice in each group were administrated once a day for successive five days. 0.5 hour after final administration, the mice in each group were administrated intragastrically with 0.5 ml of anhydrous ethanol, one hour later the mice were executed and dissected, and their stomaches were taken, washed and scored according to the pathological degree. For local congestion and rubefaction, score was 1; for petechial hemorrhage or erosion, score was respectively 1, for each linear erosion, score was 3. Statistical analysis was performed. Ulcer scores were calculated, significant differences between the groups were compared and the inhibition rates of ulcer were calculated [Inhibition rate of ulcer=(ulcer score of model group−ulcer score of drug administration group)/ulcer score of model group].

Setting [6] is: Table 6, model group 17.86 ± 8.43.
Where [7] appears, read: Table 7, model group 19.71 ± 7.18.

A value given as a limit tells only on which side of the number the result lay.

On to `Cc1cc(S(=O)(=O)NC(C)C)c2c(C)ccc(C(C)C)cc1-2` [4c, N,5-diisopropyl-3,8-dimethyl-1-azulene sulfonamide], for which the melting point – broadly, the temperature, or range, at which the solid turns liquid – is 128 to 130 °C. Besides, in data set [1], the “Melting point Day 0” value is 127.5-130.0 °C, the “Spot numbers on TLC Day 0” value is reported as 1, the “Melting point Day 5” value is 127.5-129.5 °C and the “Spot numbers on TLC Day 5” value stood at 1. In data set [1], the “Appearance Day 5” value was “purple”, the “Melting point Day 10” value was 127.5-129.5 °C, the “Spot numbers on TLC Day 10” value was 1 and the “Appearance Day 10” value was “purple”. In data set [2], the “Melting point Day 0” value is 127.5-130.0 °C, the “Spot numbers on TLC Day 0” value was 1, the “hygroscopic rate (%) Day 0” value was determined as 0.95% and the “Appearance Day 0” value is “purple”. Moreover, in data set [2], the “Melting point Day 5” value is 128.0-130.5 °C, the “Spot numbers on TLC Day 5” value stood at 1, the “hygroscopic rate (%) Day 5” value amounted to 1.32% and the “Appearance Day 5” value was “purple”. For the same molecule, in data set [2], the “Melting point Day 10” value was 128.0-130.5 °C, the “Spot numbers on TLC Day 10” value worked out at 1 and the “Appearance Day 10” value is on record as “purple”. Besides, in data set [3], the “Melting point Day 0” value is 127.5-130.0 °C, the “Spot numbers on TLC Day 0” value worked out at 1, the “Appearance Day 0” value was “purple” and the “Melting point Day 5” value is 127.0-129.5 °C. In data set [3], the “Spot numbers on TLC Day 5” value was 1, the “Appearance Day 5” value is listed as “purple”, the “Melting point Day 10” value is 125.0-126.5 °C and the “Spot numbers on TLC Day 10” value turned out to be 2. In addition, in data set [3], the “Appearance Day 10” value was “purple”. The “light, humidity and heat stability in words” value in data set [4] (summary of high-temperature, high humidity and intense light tests) is “better light, humidity and heat stability than azulene sulfonate sodium”.

On to `COC(=O)C(Cc1c[nH]c2ccccc12)NS(=O)(=O)C1=C2C(C)=C=C=C(C(C)C)C=C2C(C)=C1` (stereo not shown) [5d, N-2-(indol-3-methyl)-2-methoxyformyl methylene-3′,8′-dimethyl-5′-isopropyl azulene-1′-sulfonamide], for which the melting point lay in the range of 178 to 180 °C. Also, the “Inhibition rate (%)” value in data set [5] (Table 6) is on record as 51.23%. Besides, in data set [5] (setting [6]), the “Gastric ulcer score (X ± SD)” value is listed as 8.71 ± 4.93. Moreover, in data set [5], the “anti-gastric ulcer effect in words” value is “stronger and more significant anti-gastric ulcer capability”.

As to `COC(=O)CCNS(=O)(=O)C1=C2C(C)=C=C=C(C(C)C)C=C2C(C)=C1` [5h, N-3-methoxyformylethyl-3′,8′-dimethyl-5′-isopropyl azulene-1′-sulfonamide], the melting point fell in the range of 94 to 96 °C. For the same molecule, in data set [5] (Table 6), the “Inhibition rate (%)” value stood at 50.78%. Also, the “Gastric ulcer score (X ± SD)” value in data set [5] (setting [6]) worked out at 8.79 ± 4.38. The “anti-gastric ulcer effect in words” value in data set [5] was “stronger and more significant anti-gastric ulcer capability”.

Regarding `CC1=C=C=C(C(C)C)C=C2C(C)=CC(S(=O)(=O)NC(CC(C)C)C(=O)O)=C12` (stereo not shown) [6b, N-2-(2-methylpropyl)-2-carboxymethylene-3′,8′-dimethyl-5′-isopropyl azulene-1′-sulfonamide], the melting point lay within 44 to 46 °C. In data set [5] (Table 7), the “Inhibition rate (%)” value is on record as 50.94%. The “Gastric ulcer score (X ± SD)” value in data set [5] (setting [7]) is given as 9.67 ± 4.25. Further, the “anti-gastric ulcer effect in words” value in data set [5] is “stronger and more significant anti-gastric ulcer capability”.

`Cc1cc(S(=O)(=O)NC(Cc2c[nH]c3ccccc23)C(=O)O)c2c(C)ccc(C(C)C)cc1-2` (stereo not shown) [6c, N-2-(indol-3-methyl)-2-carboxymethylene-3′,8′-dimethyl-5′-isopropyl azulene-1′-sulfonamide]: in data set [5] (Table 7), the “Inhibition rate (%)” value is listed as 55.05%. Further, in data set [5] (setting [7]), the “Gastric ulcer score (X ± SD)” value came out at 8.86 ± 4.81. For the same molecule, the “anti-gastric ulcer effect in words” value in data set [5] is “stronger and more significant anti-gastric ulcer capability”.

Turning to `CC1=C=C=C(C(C)C)C=C2C(C)=CC(S(=O)(=O)NCC(=O)N/N=C/c3cccs3)=C12` [8a], the melting point was 69 to 70 °C. For the same molecule, the “Inhibition rate (%)” value in data set [5] (Table 7) was found to be 48.96%. The “Gastric ulcer score (X ± SD)” value in data set [5] (setting [7]) came out at 10.06 ± 5.60. For the same molecule, the “anti-gastric ulcer effect in words” value in data set [5] was “stronger and more significant anti-gastric ulcer capability”.

Turning to `Cc1cc(S(=O)(=O)[O-])c2c(C)ccc(C(C)C)cc1-2.[Na+]` [Azulene sulfonate sodium, 3,8-dimethyl-5-isopropyl azulene-1-sodium sulphonate, reference compound], in data set [1], the “Melting point Day 0” value was 104.0-106.0 °C, the “Spot numbers on TLC Day 0” value turned out to be 1, the “Melting point Day 5” value was 102.5-104.0 °C and the “Spot numbers on TLC Day 5” value stood at 2. Moreover, in data set [1], the “Appearance Day 5” value is recorded as “blue flake”, the “Melting point Day 10” value is 98.5-100.0 °C, the “Spot numbers on TLC Day 10” value was 4 and the “Appearance Day 10” value is listed as “light blue”. Besides, in data set [2], the “Melting point Day 0” value was 104.0-106.0 °C, the “Spot numbers on TLC Day 0” value came out at 1, the “hygroscopic rate (%) Day 0” value is listed as 2.16% and the “Appearance Day 0” value is “dark”. Moreover, in data set [2], the “Melting point Day 5” value was 100.5-105.5 °C, the “Spot numbers on TLC Day 5” value was found to be 3, the “hygroscopic rate (%) Day 5” value is reported as 3.69% and the “Appearance Day 5” value is given as “blue”. In addition, in data set [2], the “Melting point Day 10” value is 98.5-102.0 °C, the “Spot numbers on TLC Day 10” value is 3 and the “Appearance Day 10” value is recorded as “light”. In data set [3], the “Melting point Day 0” value is 104.0-106.0 °C, the “Spot numbers on TLC Day 0” value is reported as 1, the “Appearance Day 0” value is on record as “dark blue” and the “Melting point Day 5” value is 102.5-105.5 °C. Also, in data set [3], the “Spot numbers on TLC Day 5” value stood at 3, the “Appearance Day 5” value is recorded as “blue”, the “Melting point Day 10” value is 98.54-103.5 °C and the “Spot numbers on TLC Day 10” value is on record as greater than 4. Further, the “Appearance Day 10” value in data set [3] is on record as “light”. In data set [5] (Table 4), the “Inhibition rate (%)” value is given as 45.08% and the “Gastri ulcer score (X ± SD)” value stood at 7.14 ± 4.73. Besides, in data set [5] (Table 5), the “Inhibition rate (%)” value is on record as 32.56% and the “Ulcer score (X ± SD)” value amounted to 13.71 ± 10.75. Also, in data set [5] (Table 6), the “Inhibition rate (%)” value is 52.80%. Further, in data set [5] (setting [6]), the “Gastric ulcer score (X ± SD)” value stood at 8.43 ± 5.74. The “Inhibition rate (%)” value in data set [5] (Table 7) was 52.16%. Besides, the “Gastric ulcer score (X ± SD)” value in data set [5] (setting [7]) is on record as 9.43 ± 5.74. In data set [4] (background statement, found by experiments), the “light stability and heat stability in words” value was “poor light stability and heat stability”.

Turning to `COc1ccc2[nH]c([S+]([O-])Cc3ncc(C)c(OC)c3C)nc2c1` (stereo not shown) [Omeprazole, reference compound], the “Inhibition rate (%)” value came to 47.23% in data set [5] (Table 4), 36.74% in data set [5] (Table 5), 59.41% in data set [5] (Table 6) and 58.25% in data set [5] (Table 7). For the same molecule, in data set [5] (Table 4), the “Gastri ulcer score (X ± SD)” value amounted to 6.86 ± 3.77. Further, in data set [5] (Table 5), the “Ulcer score (X ± SD)” value came to 12.86 ± 11.89. Besides, the entries for the “Gastric ulcer score (X ± SD)” value in data set [5] (setting [6]) and in data set [5] (setting [7]) were 7.25 ± 7.15 and 8.23 ± 3.18, respectively.
